Results from PMC8259862, “Latency, thermal stability, and identification of an inhibitory compound of mirolysin, a secretory protease of the human periodontopathogen Tannerella forsythia” (Journal of Enzyme Inhibition and Medicinal Chemistry, 2021).
Where “and” joins values, the source holds several entries; their conditions need not be identical. Identical values can stand only once.

Experiments:
[1] = target: Arg-specific gingipains, Rgp; set-up: method as in PMID 15361547; details: cited from earlier work
[2] = target: Lys-specific gingipain, Kgp; set-up: method as in PMID 15361547; details: cited from earlier work
mirolysin [3] = target: T1, mirolysin (Tannerella forsythia, UniProt A0A0F7IPS1); experiment: Screening round II: inhibitory activity of the 21 fragments against mirolysin (FTC-casein); assay type: biochemical; details: molar ratio 50:1 (compound:enzyme), read-out: reduction of mirolysin activity (screening round II)
Experimental: (§1) Mirolysin activity was routinely determined in assay buffer (50 mM Tris, 150 mM NaCl, 5 mM CaCl2, 0.02% NaN3, pH 7.5) supplemented with 0.05% Pluronic F-127, employing Azocoll or FTC-caseins as a substrate. Briefly, an Azocoll suspension was added to the sample in Eppendorf tubes and vigorously shaken for 15 min–2 h at 37 °C. Undigested Azocoll was removed by centrifugation (16,100 × g, 5 min, 4 °C), and the absorbance at 410 nm was measured using a Sunrise absorbance microplate reader (Tecan, Männedorf, Switzerland). In the case of FTC-casein, analysed samples were transferred into wells of a black microtiter plate (Nunc, Roskilde, Denmark), and then the FTC-casein solution was added. Proteolytic activity was recorded as an increase in fluorescence (excitation/emission = 485/538 nm) over time using a SpectraMax Gemini EM reader (Molecular Devices, San Jose, CA, USA).
Mirolysin (40 nM) was mixed with each of the 21 compounds (2 µM) (Supplementary Table 1) in assay buffer (50 mM Tris, 150 mM NaCl, 5 mM CaCl2, 0.02% NaN3, 0.05% Pluronic F-127, pH 7.5) in a 96-well plate (total volume, 100 µl). After 15 min at 37 °C, 100 µl of the substrate solution FTC-casein (100 µg/ml) was added, and substrate hydrolysis was monitored. The percentage of inhibition was determined relative to the sample containing the enzyme without any compound added (control sample). […]

mirolysin [4] = target: T1, mirolysin; experiment: 2D NMR titration of 15N-labelled mirolysin (KD); assay type: binding; details: KD by NMR titration, estimated from peaks in fast exchange, 298 K
Experimental: The custom-selected Maybridge diversity library of 1500 fragments was screened using the saturation transfer difference (STD) ligand-based approach, with fragments pooled into cocktails of five fragments each. STD spectra were recorded at a concentration of 10 µM mirolysin, with the final concentration of each fragment in the sample at 1 mM. D6-DMSO was used for the lock signal. STD experiments used alternating on- and off-resonance saturation (2s saturation, Gaussian pulse, +0.6 ppm, −5 ppm, 128 scans) with water suppression using a double-pulsed-field gradient spin-echo (DPFGSE) watergate W5 double-echo sequence[32]^,[33]. Spectra were compared with a reference containing d6-DMSO only. […] Hits identified using STD–NMR, based on the intensity ratio of ligand signals between the STD experiment and a 1D reference spectrum, were validated using ^1H,^15N heteronuclear single quantum coherence (HSQC) experiments with water flip back and watergate water suppression[34]^,[35], with spectra assessed for chemical shift perturbations (CSPs) relative to a control containing d6-DMSO. […] Spectra were recorded with 40 scans, and a ^1H spectral width of 9615.4 Hz and a ^15N spectral width of 2128.9 Hz, with 2048 and 256 complex points, respectively. All experiments were recorded at 298 K using a Bruker Avance 600 MHz spectrometer (^1H frequency, 600 MHz) equipped with a 5 mm QCI cryoprobe.

mirolysin [5] = target: T1, mirolysin; experiment: Determination of KD by microscale thermophoresis; assay type: binding
Experimental: The Monolith NT.115 instrument (NanoTemper) was used to analyse binding interactions between mirolysin and compounds 9, 10, and 21. Lysine residues of mirolysin were fluorescently labelled with the Monolith NT Protein Labelling Kit RED-NHS-Red dye (NanoTemper), strictly according to the manufacturer’s instruction (a 7 M excess of dye was used). Compounds at concentrations ranging from 1.5 to 25 000 nM were incubated for 5 min at 20 °C with 20 nM mirolysin. Experiments were performed in 0.1 M Tris, 0.15 M NaCl, 5 mM CaCl2, 0.05% Pluronic-F127, 0.02% NaN3, pH 7.5. Samples were loaded into Monolith NT.115 Standard Treated glass capillaries (NanoTemper), and an initial fluorescence measurement followed by a thermophoresis measurement was carried out using 80% LED power and high microscale thermophoresis (MST) power. KD values were calculated using MO. Affinity Analysis software (NanoTemper). Each experiment was performed in triplicate.

mirolysin [6] = target: T1, mirolysin; experiment: Dose-dependent inhibition of mirolysin (Azocoll); assay type: biochemical
Experimental: as §1
Mirolysin (0.1 µM) was incubated with increasing concentrations of compounds (0–100 µM) in 50 µl assay buffer (50 mM Tris, 0.15 M NaCl, 5 mM CaCl2, 0.02% NaN3, pH 7.5) for 15 min at 37 °C, before 200 µl Azocoll suspension (15 mg/ml in assay buffer) was added.

mirolysin [7] = target: T1, mirolysin; experiment: Determination of inhibition constant (Ki) and mode of inhibition (FTC-casein); assay type: biochemical; details: for mode of inhibition: Lineweaver-Burk plot
Experimental: After 15 min of incubation at 37 °C, 100 µl fluorogenic protein substrate FTC-casein was added at different concentrations (5–120 µg/ml), and the residual proteolytic activity was recorded. The mode of inhibition of target proteases by the compounds was determined graphically using the Lineweaver–Burk plot using Equation (2): (2) 1/V=Km/Vmax×1/[S]+1/Vmax where V is the reaction velocity, Vmax is the maximum V, Km is the Michaelis–Menten constant, and [S] is the substrate concentration. The Ki was determined using a macro for competitive inhibition from GraphPad Prism software (La Jolla, CA, USA) and Equation (3): (3) V=Vmax×[S]/Kmobs+[S]; Kmobs=Km×(1+[I]/Ki) where Kmobs is the Michaelis–Menten constant in the presence of inhibitor, and [I] is the inhibitor concentration.

mirolysin [8] = target: T1, mirolysin; experiment: Screening of compound specificity: mirolysin; assay type: biochemical; details: read-out: decrease in mirolysin activity
Experimental: (§2) The residual proteolytic activity was determined employing Azocoll (12 mg/ml) or, for gingipains only, FTC-casein (50 µg/ml), as described above.

mirolase = experiment: Screening of compound specificity: mirolase; assay type: biochemical, Tannerella forsythia; details: 100 nM protease, 100 M excess of compound, Azocoll
Experimental: as §2

karilysin = target: T2, karilysin (Tannerella forsythia, UniProt D0EM77); experiment: Screening of compound specificity: karilysin; assay type: biochemical; details: 100 nM protease, 100 M excess of compound, Azocoll
T2 construct: made in house
Experimental: as §2

forsilysin = experiment: Screening of compound specificity: forsilysin; assay type: biochemical, Tannerella forsythia; details: 100 nM protease, 100 M excess of compound, Azocoll
Experimental: as §2

RgpB = target: T3, RgpB (Porphyromonas gingivalis, UniProt P95493); experiment: Screening of compound specificity: RgpB; assay type: biochemical; details: 100 nM protease, 100 M excess of compound, FTC-casein
T3 construct: His; made in house
Experimental: as §2

Kgp = target: T4, Kgp (Porphyromonas gingivalis, UniProt B2RLK2); experiment: Screening of compound specificity: Kgp; assay type: biochemical; details: 100 nM protease, 100 M excess of compound, FTC-casein
T4 construct: made in house
Experimental: as §2

human thrombin = target: T5, human thrombin (Homo sapiens, UniProt P00734); experiment: Screening of compound specificity: thrombin; assay type: biochemical; details: 100 nM protease, 100 M excess of compound, Azocoll
T5 construct: purchased Merck Sigma-Aldrich
Experimental: as §2

human plasmin = target: T6, human plasmin (Homo sapiens, UniProt P00747); experiment: Screening of compound specificity: plasmin; assay type: biochemical; details: 100 nM protease, 100 M excess of compound, Azocoll
T6 construct: purchased Merck Sigma-Aldrich
Experimental: as §2

bovine trypsin = target: T7, bovine trypsin (Bos taurus, UniProt P00760); experiment: Screening of compound specificity: trypsin; assay type: biochemical; details: 100 nM protease, 100 M excess of compound, Azocoll
T7 construct: purchased Merck Sigma-Aldrich
T7 sequence (P00760 24-246): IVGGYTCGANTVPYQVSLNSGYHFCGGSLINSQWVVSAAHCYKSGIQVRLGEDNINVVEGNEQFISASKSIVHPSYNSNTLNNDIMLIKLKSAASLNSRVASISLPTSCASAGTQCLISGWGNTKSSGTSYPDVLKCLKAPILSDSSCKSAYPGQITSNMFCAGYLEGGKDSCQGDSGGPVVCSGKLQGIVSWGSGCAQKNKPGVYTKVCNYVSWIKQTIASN
Experimental: as §2

promirolysin (proM^wt) = experiment: Effect of compounds on promirolysin autoprocessing (activation in cis); assay type: biochemical, Tannerella forsythia
Experimental: ProM^wt (70 µM) was activated at 37 °C in 5 mM Tris, 50 mM NaCl, 0.02% NaN3, pH 8.0, alone or in the presence of a […] excess of different compounds. At specific time points, aliquots were withdrawn and analysed by SDS–PAGE (10% gels; 4 µl sample, preincubated with 1:1 (vol:vol) of 20 mM 1,10-phenanthroline for 5 min at room temperature), and measured in a proteolytic activity assay, employing FTC-casein (25 µg/ml) as a substrate.

[9] = […] excess of compound, FTC-casein

T1 sequence (A0A0F7IPS1 entry or part of it): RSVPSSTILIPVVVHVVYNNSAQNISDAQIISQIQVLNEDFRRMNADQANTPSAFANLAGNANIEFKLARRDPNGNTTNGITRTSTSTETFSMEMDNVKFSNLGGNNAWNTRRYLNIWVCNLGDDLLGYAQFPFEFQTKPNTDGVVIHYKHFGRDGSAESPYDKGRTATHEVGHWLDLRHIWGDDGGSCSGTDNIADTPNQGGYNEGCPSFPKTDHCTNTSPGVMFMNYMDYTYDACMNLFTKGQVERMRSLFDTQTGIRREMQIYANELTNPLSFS
T6 sequence (P00747 581-810 limits assumed): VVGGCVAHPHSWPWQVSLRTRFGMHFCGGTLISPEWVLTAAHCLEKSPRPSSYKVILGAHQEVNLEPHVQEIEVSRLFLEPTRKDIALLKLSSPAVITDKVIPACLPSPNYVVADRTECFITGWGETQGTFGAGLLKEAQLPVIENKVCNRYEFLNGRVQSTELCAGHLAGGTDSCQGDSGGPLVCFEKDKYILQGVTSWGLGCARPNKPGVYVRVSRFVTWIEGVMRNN
T6 sequence (P00747 97-580 partner limits assumed): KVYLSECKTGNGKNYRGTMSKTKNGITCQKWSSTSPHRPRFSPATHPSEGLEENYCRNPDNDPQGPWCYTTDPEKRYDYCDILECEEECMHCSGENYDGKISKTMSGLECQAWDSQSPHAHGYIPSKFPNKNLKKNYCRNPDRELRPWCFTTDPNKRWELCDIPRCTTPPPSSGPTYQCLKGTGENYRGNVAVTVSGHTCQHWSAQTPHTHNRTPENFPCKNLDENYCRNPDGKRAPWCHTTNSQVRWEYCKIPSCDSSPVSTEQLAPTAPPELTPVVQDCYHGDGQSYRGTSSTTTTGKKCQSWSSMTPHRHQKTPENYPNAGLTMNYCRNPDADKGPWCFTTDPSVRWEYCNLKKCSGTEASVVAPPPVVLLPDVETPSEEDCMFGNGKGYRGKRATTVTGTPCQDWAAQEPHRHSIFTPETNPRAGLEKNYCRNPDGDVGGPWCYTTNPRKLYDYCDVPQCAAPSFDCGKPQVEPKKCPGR
T2 sequence (D0EM77 35-472): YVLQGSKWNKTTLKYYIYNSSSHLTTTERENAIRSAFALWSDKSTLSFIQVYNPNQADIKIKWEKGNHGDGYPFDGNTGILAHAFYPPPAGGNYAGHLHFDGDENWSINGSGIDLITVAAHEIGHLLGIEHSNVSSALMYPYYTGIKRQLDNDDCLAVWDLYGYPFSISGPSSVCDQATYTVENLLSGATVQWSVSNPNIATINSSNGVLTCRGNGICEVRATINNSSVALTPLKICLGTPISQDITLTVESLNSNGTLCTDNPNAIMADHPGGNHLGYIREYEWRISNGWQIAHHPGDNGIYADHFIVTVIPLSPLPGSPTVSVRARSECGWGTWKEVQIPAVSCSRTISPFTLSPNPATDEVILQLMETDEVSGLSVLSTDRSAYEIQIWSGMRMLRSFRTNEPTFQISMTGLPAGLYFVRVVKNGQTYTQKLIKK
T3 sequence (P95493 230-736): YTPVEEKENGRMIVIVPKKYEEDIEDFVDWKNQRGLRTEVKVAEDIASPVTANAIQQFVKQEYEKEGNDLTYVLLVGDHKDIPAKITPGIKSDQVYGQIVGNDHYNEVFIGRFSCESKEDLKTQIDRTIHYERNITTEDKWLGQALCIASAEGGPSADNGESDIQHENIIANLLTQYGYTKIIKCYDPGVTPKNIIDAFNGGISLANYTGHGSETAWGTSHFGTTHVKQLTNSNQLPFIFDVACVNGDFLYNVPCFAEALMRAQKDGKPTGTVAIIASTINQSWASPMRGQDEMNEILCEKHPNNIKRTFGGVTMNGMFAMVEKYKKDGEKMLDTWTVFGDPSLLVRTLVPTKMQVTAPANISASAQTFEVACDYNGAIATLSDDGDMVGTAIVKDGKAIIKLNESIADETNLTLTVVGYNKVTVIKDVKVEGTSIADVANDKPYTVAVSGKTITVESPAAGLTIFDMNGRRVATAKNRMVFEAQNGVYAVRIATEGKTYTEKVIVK

SMILES	inhibition at 2 µM (mirolysin [3])	Kd (mirolysin [4])	Kd (mirolysin [5])	IC50 (mirolysin [6])	Ki (mirolysin [7])	mode of inhibition (mirolysin [7])	inhibition at 10 µM (mirolysin [8])	effect on mirolase activity (mirolase)	effect on karilysin activity (karilysin)	effect on forsilysin activity (forsilysin)	effect on RgpB activity (RgpB)	effect on Kgp activity (Kgp)	effect on thrombin activity (human thrombin)	effect on plasmin activity (human plasmin)	effect on trypsin activity (bovine trypsin)	also measured
CN(C)C(=O)[C@H](CCCCN)NC(=O)C(=O)[C@H](CCCN=C(N)N)NC(=O)[C@H](CCCCN)NC(=O)OCc1ccccc1 [Kyt-1]																Ki [1]: 0.00013 µM
CN(NC(=O)CC[C@H](NC(=O)OCc1ccccc1)C(=O)N[C@@H](CCCCN)C(=O)C(=O)NCc1ccccc1)c1ccccc1 [Kyt-36]																Ki [2]: 0.075 nM
NCc1cccc2nsnc12 [cpd 9]	10 to 20%	72.2 µM and 72 µM	1.1 µM	2.3 µM	3.2 µM	reversible competitive inhibitors	50%	almost completely unaffected	almost completely unaffected	almost completely unaffected	almost completely unaffected	almost completely unaffected	almost completely unaffected	almost completely unaffected	almost completely unaffected	effect on mirolase activity (mirolase; listed as Cpd 9): did not affect; effect on karilysin activity (karilysin; listed as Cpd 9): did not affect; effect on forsilysin activity (forsilysin; listed as Cpd 9): did not affect; effect on RgpB activity (RgpB; listed as Cpd 9): did not affect; effect on Kgp activity (Kgp; listed as Cpd 9): did not affect; effect on thrombin activity (human thrombin; listed as Cpd 9): did not affect; effect on plasmin activity (human plasmin; listed as Cpd 9): did not affect; effect on trypsin activity (bovine trypsin; listed as Cpd 9): did not affect; effect on proteolytic activity in aliquots during proM^wt activation (promirolysin (proM^wt); [9]): significantly decreased; reduction of mirolysin activity after 216 h of proM^wt activation (promirolysin (proM^wt); [9]): 30%; effect on proM^wt maturation (35 kDa zymogen to 31 kDa form, SDS-PAGE) (promirolysin (proM^wt); proM^wt 70 µM, 50 M excess of compound, 37 °C, 216 h): significantly slowed; time to complete proM^wt maturation (promirolysin (proM^wt); proM^wt 70 µM, 50 M excess of compound, 37 °C, SDS-PAGE): > 216 h
NCc1cccc(-c2ccco2)c1 [cpd 10]	10 to 20%	278 µM	9.7 µM	6.6 µM	22 µM	reversible competitive inhibitors	20%	almost completely unaffected	almost completely unaffected	almost completely unaffected	almost completely unaffected	almost completely unaffected	almost completely unaffected	almost completely unaffected	almost completely unaffected	
